This assay has as its target HSP90 (Homo sapiens, UniProt P07900). Description: HSP90 inhibition (HSP90 IC50). The class given is biochemical.
The term IC50 denotes the concentration that gives 50% inhibition. A low value points to higher potency. For the compound `COc1ccc(CNC(=O)c2ccc(N3[C@@H]4CC[C@H]3C[C@@H](NC(=O)c3cccc(OC)c3C)C4)nc2)c(Cl)c1` [N-{[2-chloro-4-(methyloxy)phenyl]methyl}-6-[3-endo-({[2-methyl-3-(methyloxy)phenyl]carbonyl}amino)-8-azabicyclo[3.2.1]oct-8-yl]pyridine-3-carboxamide], the IC50 was less than 500 nM. With `Cc1cc(C(N)=O)c(NCC(C)(C)C)cc1C(=O)N[C@H]1C[C@H]2CC[C@@H](C1)N2c1ccc(C(=O)C2CC2)cn1` [N-{8-[5-(cyclopropylcarbonyl)pyridin-2-yl]-8-azabicyclo[3.2.1]oct-3-endo-yl)-5-[(2,2-dimethylpropyl)amino]-2-methylbenzene-1,4-dicarboxamide] the figure was less than 500 nM. Then `COc1ccccc1CNC(=O)c1ccc(N2[C@@H]3CC[C@H]2C[C@@H](NC(=O)c2cccc(OC)c2C)C3)nc1` [6-[3-endo-({[2-methyl-3-(methyloxy)phenyl]carbonyl}amino)-8-azabicyclo[3.2.1]oct-8-yl]-N-{[2-(methyloxy)phenyl]methyl}pyridine-3-carboxamide], with 1000 to 2000 nM.

In turn, `COc1ccc(C(=O)N[C@H]2C[C@H]3CC[C@@H](C2)N3c2ccc(C(=O)NCc3ccccc3)cn2)c(C)c1OC` [6-[3-endo-({[2-methyl-3,4-bis(methyloxy)phenyl]carbonyl}amino)-8-azabicyclo[3.2.1]oct-8-yl]-N-(phenylmethyl)pyridine-3-carboxamide] came in with an IC50 of 2000 to 10000 nM. Then `CN(C)CCC(=O)c1ccc(N2[C@@H]3CC[C@H]2C[C@@H](NC(=O)c2ccc(C(N)=O)c(NCC4CC4)c2)C3)nc1` [2-[(cyclopropylmethyl)amino]-N4-{8-[5-(N,N-dimethyl-beta-alanyl)pyridin-2-yl]-8-azabicyclo[3.2.1]oct-3-endo-yl}benzene-1,4-dicarboxamide], with less than 500 nM; and `Cc1cc(C(=O)NC2CC3CCC(C2)N3c2ccc(C(=O)N[C@H]3CCN(C)C3)cn2)c(C)cc1C(N)=O` (stereo partly drawn) [2,5-dimethyl-N-{8-[5-({[(3S)-1-methylpyrrolidin-3-yl]amino}carbonyl)pyridin-2-yl]-8-azabicyclo[3.2.1]oct-3-endo-yl}benzene-1,4-dicarboxamide], with less than 500 nM.

Turning to `O=C(NCc1ccccc1)c1ccc(N2[C@@H]3CC[C@H]2C[C@@H](NC(=O)c2ccc(C(O)CO)cc2)C3)nc1` (stereo partly drawn) [6-[3-endo-({(4-(1,2-dihydroxyethyl)phenyl]carbonyl}amino)-8-azabicyclo[3.2.1]oct-8-yl]-N-(phenylmethyl)pyridine-3-carboxamide], the concentration for half-maximal inhibition (IC50) was 1000 to 2000 nM.

With `COc1cccc(C(=O)N[C@H]2C[C@H]3CC[C@@H](C2)N3c2ccc(C(=O)NCc3cccs3)cn2)c1C` [6-[3-endo({[2-methyl-3-(methyloxy)phenyl]carbonyl}amino)-8-azabicyclo[3.2.1]oct-8-yl]-N-(2-thienylmethyl)pyridine-3-carboxamide], the concentration for half-maximal inhibition (IC50) is less than 500 nM.

Consider `COc1cccc(C(=O)N[C@H]2C[C@H]3CC[C@@H](C2)N3c2ccc(C(=O)NCc3ccccc3F)cn2)c1C` [N-[(2-fluorophenyl)methyl]-6-[3-endo-({[2-methyl-3-(methyloxy)phenyl]carbonyl}amino)-8-azabicyclo[3.2.1]oct-8-yl]pyridine-3-carboxamide], for which the IC50 was less than 500 nM.

In turn, `CCN(CC)CCCNC(=O)c1ccc(N2[C@@H]3CC[C@H]2C[C@@H](NC(=O)c2cccc(OC)c2C)C3)nc1` [N-[3-(diethylamino)propyl]-6-[3-endo-({[2-methyl-3-(methyloxy)phenyl]carbonyl}amino)-8-azabicyclo[3.2.1]oct-8-yl]pyridine-3-carboxamide] showed a half-maximal inhibitory concentration (IC50) of 500 to 999 nM. Then `COc1cccc(C(=O)N[C@H]2C[C@H]3CC[C@@H](C2)N3c2ccc(C(=O)NC3CCC3)cn2)c1C` [N-cyclobutyl-6-[3-endo-({[2-methyl-3-(methyloxy)phenyl]carbonyl}amino)-8-azabicyclo[3.2.1]oct-8-yl]pyridine-3-carboxamide], with 500 to 999 nM; and `Cc1cc(OC(N)=O)ccc1C(=O)N[C@H]1C[C@H]2CC[C@@H](C1)N2c1ccc(C(=O)NCc2ccccc2)cn1` [3-methyl-4-({[8-(5-{[(phenylmethyl)amino]carbonyl}pyridin-2-yl)-8-azabicyclo[3.2.1]oct-3-endo-yl]amino}carbonyl)phenyl carbamate], with 2000 to 10000 nM; and “N-[8-(5-acetylpyradin-2-yl)-8- azabicyclo[3.2.1]oct-3-endo-yl]-2- methyl-3-(methyloxy)benzamide”, with 500 to 999 nM. With `NC(=O)c1ccc(C(=O)N[C@H]2C[C@H]3CC[C@@H](C2)N3c2ccc(C(=O)CCC3CCCCC3)cn2)cc1NCC1CC1` [N4-{8-[5-(3-cyclohexylpropanoyl)pyridin-2-yl]-8-azabicyclo[3.2.1]oct-3-endo-yl}-2-[(cyclopropylmethyl)amino]benzene-1,4-dicarboxamide] the figure was 1000 to 2000 nM; with `NC(=O)c1ccc(C(=O)N[C@H]2C[C@H]3CC[C@@H](C2)N3c2ccc(C(=O)C3CC3)cn2)cc1Nc1ccncc1` [N4-{8-[5-(cyclopropylcarbonyl)pyridin-2-yl]-8-azabicyclo[3.2.1]oct-3-endo-yl}-2-(pyridin-4-ylamino)benzene-1,4-dicarboxamide], less than 500 nM. `CS(=O)(=O)CCNc1cc(C(=O)N[C@H]2C[C@H]3CC[C@@H](C2)N3c2ccc(C(=O)NC3CCCC3)cn2)ccc1C(N)=O` [N4-(8-{5-[(cyclopentylamino)carbonyl]pyridin-2-yl}-8-azabicyclo[3.2.1]oct-3-endo-yl)-2-{[2-(methylsulfonyl)ethyl]amino}benzene-1,4-dicarboxamide] displayed an IC50 of less than 500 nM. Turning to `CC(Nc1cc(C(=O)N[C@H]2C[C@H]3CC[C@@H](C2)N3c2ccc(C(=O)C3CC3)cn2)ccc1C(N)=O)C1CC1` (stereo partly drawn) [N4-{8-[5-(cyclopropylcarbonyl)pyridin-2-yl]-8-azabicyclo[3.2.1]oct-3-endo-yl}-2-[(1-cyclopropylethyl)amino]benzene-1,4-dicarboxamide], the IC50 was less than 500 nM. With `CCc1cc(C(=O)N[C@H]2C[C@H]3CC[C@@H](C2)N3c2ccc(C(=O)C3CC3)cn2)c(C)cc1C(N)=O` [N-{8-[5-(cyclopropylcarbonyl)pyridin-2-yl]-8-azabicyclo[3.2.1]oct-3-endo-yl}-5-ethyl-2-methylbenzene-1,4-dicarboxamide] the figure was less than 500 nM. Then `NC(=O)c1ccc(C(=O)N[C@H]2C[C@H]3CC[C@@H](C2)N3c2ccc(C(N)=O)cn2)cc1` [N-{8-[5-(aminocarbonyl)pyridin-2-yl]-8-azabicyclo[3.2.1]oct-3-endo-yl}benzene-1,4-dicarboxamide], with 1000 to 2000 nM; and `COc1cccc(C(=O)N[C@H]2C[C@H]3CC[C@@H](C2)N3c2ccc(C(=O)NCc3ccc(N4CCOCC4)cc3)cn2)c1C` [6-[3-endo-({[2-methyl-3-(methyloxy)phenyl]carbonyl}amino)-8-azabicyclo[3.2.1]oct-8-yl]-N-[(4-morpholin-4-ylphenyl)methyl]pyridine-3-carboxamide], with less than 500 nM. As to `C[C@H](NC(=O)c1ccc(N2C3CCC2CC(NC(=O)c2cccc(N[C@H]4CC[C@H](O)CC4)c2)C3)nc1)c1ccc(N2CCN(C)CC2)cc1` (stereo partly drawn) [6-{3-endo-[({3-[(4-hydroxycyclohexyl)amino]phenyl}carbonyl)amino]-8-azabicyclo[3.2.1]oct-8-yl}-N-{(1S)-1-[4-(4-methylpiperazin-1-yl)phenyl]ethyl}pyridine-3-carboxamide], the IC50 lay within 2000 to 10000 nM.

The values above are taken from patent publication US8012956B2, “Tropane compounds” (Exelixis, Inc., priority 2007, dated 2011).
